From patent US20250177412A1, “SMALL-MOLECULE INHIBITORS TARGETING THE BOB1/OCT1 INTERFACE” (NANTES UNIVERSITE, priority 2022, published 2025)

Assays:
[1] = molecular target: OCT1 (endogenous) + BOB1 (transfected) (Homo sapiens) (UniProt P14859+Q16633); test: cell_activity; conditions: BOB1 stimulation over endogenous OCT1 alone, HEK293 luciferase; attenuated by compounds 004, 005, 006 at 10 uM
[2] = tested on: BOB1/OCT1-mediated transcription; test: Luciferase reporter assay (transient transfection, 6xPORE-luc); assay type: cell-based, human; conditions: 10 μM in the culture medium
Procedure: FIGS. 1A-C are a combination of graphs showing that compound 005 inhibits BOB1/OCT1-mediated transcription in vitro. HEC293Ea1 cells, known to express endogenous OCT1, were co-transfected with […] reporter, pEV-OBF1 (BOB1) effector, and pCMV-β-gal calibrator plasmids. Luciferase and β-galactosidase activities were measured 48 hours after transfection. The 100% luciferase activity was set as activity in presence of vehicle (10 μM DMSO). […] All experiments are performed at least in triplicates. Bars indicate the mean±SEM. * P<0.05, ** P<0.01, *** P<0.001, **** P<0.0001.
The HEK293E1a cells were seeded at density 1.2×10^4 per well on 48-well plate in DMEM medium containing 10% fetal calf serum. After 24 hours cells were transfected with plasmid mix (300 ng/well) containing specified amounts of the p6×PORE-luc reporter, pEV-OBF1 and pCG-Oct1 effector, pBluescript II KS+ carrier, and pCMV-βgal (for standardization) as previously described. The transfections were carried out in three biological replicates, using Polyethylenimine (PEI 25K, Polysciences Inc.) at the ratio 2:1 to DNA. After 48 hours, cells were washed with PBS, lysed, and measured for luciferase activity, using the Bright-Glo luciferase assay system (Promega), and for β-galactosidase activity in a standard assay.
BOB1 has been described as a coactivator acting in cooperation with the POU-domain proteins OCT1 and OCT2 bound to distinct DNA-motifs either in monomeric or dimeric configurations. […] As an initial functional assay, we examined the ability of the compounds according to the present invention to affect BOB1-OCT1-PORE-mediated transcriptional activation in transient transfection luciferase assay. To this end, we made use of previously generated 6×PORE-luc and reporter plasmid, in which hexamers of the PORE were cloned upstream of the thymidine kinase (tk) minimal promoter and luciferase gene. […] Furthermore, the addition of a plasmid expressing exogenous OCT1 exerted an inhibitory effect on both basal and BOB1-mediated transcription (data not shown). This observation is likely due to the fact that HEK293 cells, like all other mammalian cell types, express OCT1, and further addition of exogenous OCT1 in these cells shifts the BOB1/OCT1 equilibrium out of optimal range, resulting in squelching effect, and in our experimental setup, in about 3-fold stimulation, as compared to that by endogenous OCT1 alone (FIG. 1A). […] Compound 005 was selected for further detailed investigation.

OCT1 (endogenous) + BOB1 (transfected) (Homo sapiens), sequence (P14859 other isoform, or with tags, fused parts or gaps, chain 1 of 2): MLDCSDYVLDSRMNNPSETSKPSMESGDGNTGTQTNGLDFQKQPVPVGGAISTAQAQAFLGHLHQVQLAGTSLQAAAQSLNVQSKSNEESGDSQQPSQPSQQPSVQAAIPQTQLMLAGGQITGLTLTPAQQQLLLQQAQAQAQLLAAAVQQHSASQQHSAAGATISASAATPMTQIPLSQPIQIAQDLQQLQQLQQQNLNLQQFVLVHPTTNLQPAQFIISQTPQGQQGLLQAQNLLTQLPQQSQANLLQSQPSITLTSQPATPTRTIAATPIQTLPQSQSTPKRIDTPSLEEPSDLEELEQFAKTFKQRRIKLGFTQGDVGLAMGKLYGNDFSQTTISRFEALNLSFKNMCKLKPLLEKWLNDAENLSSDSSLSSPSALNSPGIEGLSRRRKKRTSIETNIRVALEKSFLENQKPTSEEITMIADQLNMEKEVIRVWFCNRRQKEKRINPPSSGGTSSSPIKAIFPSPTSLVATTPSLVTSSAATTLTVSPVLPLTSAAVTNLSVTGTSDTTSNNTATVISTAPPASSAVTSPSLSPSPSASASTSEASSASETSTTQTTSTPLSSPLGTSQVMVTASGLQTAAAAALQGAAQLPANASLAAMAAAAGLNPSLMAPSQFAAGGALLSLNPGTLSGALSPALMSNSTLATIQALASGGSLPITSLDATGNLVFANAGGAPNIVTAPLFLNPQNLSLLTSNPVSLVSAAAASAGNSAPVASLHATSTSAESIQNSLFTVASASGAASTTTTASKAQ
OCT1 (endogenous) + BOB1 (transfected) (Homo sapiens), sequence (Q16633 whole entry, chain 2 of 2): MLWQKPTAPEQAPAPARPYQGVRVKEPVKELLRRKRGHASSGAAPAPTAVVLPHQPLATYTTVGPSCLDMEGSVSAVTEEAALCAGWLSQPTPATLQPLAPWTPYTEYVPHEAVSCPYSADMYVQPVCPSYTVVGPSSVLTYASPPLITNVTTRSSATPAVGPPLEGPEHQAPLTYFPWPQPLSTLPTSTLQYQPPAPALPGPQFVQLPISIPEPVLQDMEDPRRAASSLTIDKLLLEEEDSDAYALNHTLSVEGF

Row | Compound | activity [1] [fold] | BOB1/OCT1-driven transcription (relative luciferase activity) [2]
1 | 6xPORE-tk-luc reporter | 3 | 
2 | O=C(Nc1ccc(Br)c(C(F)(F)F)c1)C1CCCCN1c1nc(NCc2cccc(F)c2)nc(N(CCO)CCO)n1 (stereo not drawn) [compound 004, 1-(4-(bis(2-hydroxyethyl)amino)-6-((3-fluorobenzyl)amino)-1,3,5-triazin-2-yl)-N-(4-bromo-3-(trifluoromethyl)phenyl)piperidine-2-carboxamide] |  | significantly attenuated
3 | O=C(O)CCNc1nc(NCCCc2ccc(F)cc2)nc(N2CCCC(C(=O)N3CCC(Cc4ccccc4)CC3)C2)n1 (stereo not drawn) [compound 006, 3-((4-(3-(4-benzylpiperidine-1-carbonyl)piperidin-1-yl)-6-((3-(4-fluorophenyl)propyl)amino)-1,3,5-triazin-2-yl)amino)propanoic acid] |  | significantly attenuated
